Reference: PubChem BioAssay (NCI)
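Results reflect a 48-hour exposure of cells in 96-well plates to compound at five concentrations. GI50 marks 50% less growth. TGI denotes the concentration required for complete inhibition of growth.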

What was measured:
Test in all cases: inhibition of tumour cell growth, NCI panel, 48 h
NCI/ADR-RES ovarian = test system: NCI/ADR-RES ovarian
MDA-N = test system: MDA-N
MDA-MB-435 = test system: MDA-MB-435
BT-549 breast = test system: BT-549 breast
MCF7 breast = test system: MCF7 breast
T-47D breast = test system: T-47D breast
DU-145 prostate = test system: DU-145 prostate
SR leukemia = test system: SR leukemia
HS 578T breast = test system: HS 578T breast
KM20L2 colon = test system: KM20L2 colon
SNB-78 CNS = test system: SNB-78 CNS
M19-MEL melanoma = test system: M19-MEL melanoma
DLD-1 colon = test system: DLD-1 colon

| Compound | TGI (NCI/ADR-RES ovarian) | TGI (MDA-N) | TGI (MDA-MB-435) | TGI (BT-549 breast) | TGI (MCF7 breast) | TGI (T-47D breast) | TGI (DU-145 prostate) | TGI (SR leukemia) | TGI (HS 578T breast) | TGI (KM20L2 colon) | TGI (SNB-78 CNS) | TGI (M19-MEL melanoma) | TGI (DLD-1 colon) | also measured |
| --- | --- | --- | --- | --- | --- | --- | --- | --- | --- | --- | --- | --- | --- | --- |
| Cc1c(C#N)c2nnn(C)c(=O)n2c1-c1ccccc1 | > 100 µM | > 100 µM | > 100 µM | > 100 µM | > 100 µM |  |  |  |  |  |  |  |  |  |
| Fc1c(F)c(C(F)(F)F)c(F)c(F)c1N/N=C\c1c[nH]c2ccccc12 | 5.84 µM | 3.61 µM | 3.14 µM | 7.09 µM | 10.3 µM | 18.7 µM | 15.8 µM | 9.19 µM | 28.9 µM |  |  |  |  |  |
| CN(C)c1ccc(/C=C/C=C\C2=CC(=C\C=C/C=C3C=CC(=[N+](C)C)C=C3)/Sc3ccccc32)cc1 |  |  |  |  |  |  |  |  |  | > 100 µM | > 100 µM | 35 µM |  |  |
| COc1cc2c(/C=C3/C(=O)Nc4ccc(Cl)cc43)c(Cl)n(Cc3ccccc3)c2cc1C | > 100 µM |  | 6.21 µM | 22.6 µM | > 100 µM | 13.9 µM | 16.1 µM | 5.9 µM | > 100 µM |  |  |  |  |  |
| COc1ccc(-c2ccc(-c3ccc(C(=N)N)nc3)s2)cc1 | 3.75 µM |  | 3.11 µM |  |  |  | 3.17 µM |  |  |  |  |  |  | GI50 (NCI/ADR-RES ovarian): 1.94 µM; GI50 (DU-145 prostate): 1.77 µM; GI50 (MDA-MB-435): 1.73 µM |
| CC(=O)OCC(=O)[C@@]1(O)CC[C@H]2[C@@H]3CCC4=CC(=O)[C@H](C)C[C@]4(C)[C@H]3[C@@H](O)C[C@@]21C |  |  |  |  |  |  |  | > 100 µM |  | > 100 µM | > 100 µM | > 100 µM | > 100 µM |  |
| COc1ccc(/C=C2\OC(=O)C(Cl)=C2c2ccc(OC)cc2)cc1 |  | > 100 µM | > 100 µM | > 100 µM |  | > 100 µM | > 100 µM | > 100 µM | > 100 µM |  |  |  |  |  |
| O=S(=O)([O-])[O-].[Fe+2].c1ccc(/C(=N\Nc2ccccn2)c2ccccn2)cc1 |  |  |  |  |  |  |  |  |  | 12.4 µM | 12.1 µM | 4.25 µM | 11.2 µM |  |
| O=C(NO)c1ccc([N+](=O)[O-])cc1 |  |  |  |  |  |  |  |  |  | > 100 µM |  | > 100 µM | > 100 µM |  |
| COc1ccc2c(c1)CC[C@@H]1[C@@H]2CC[C@]2(C)C(=O)C3(CCCCC3)C[C@@H]12 | > 100 µM |  | > 100 µM | > 100 µM |  | > 100 µM | > 100 µM | > 100 µM | > 100 µM |  |  |  |  | GI50 (NCI/ADR-RES ovarian): > 100 µM; GI50 (T-47D breast): > 100 µM; GI50 (DU-145 prostate): > 100 µM; GI50 (MDA-MB-435): > 100 µM; GI50 (SR leukemia): > 100 µM; GI50 (HS 578T breast): 88.1 µM; GI50 (BT-549 breast): > 100 µM |
